Experiment [1] relates to Hepatitis C virus. Briefly: Antiviral activity against Hepatitis C virus infected in Huh-7 cells assessed as inhibition of HCV replicon by replicon assay. The format is functional, organism-based, Hepacivirus hominis.
Experiment [2] in a line: Binding affinity to Hepatitis C virus genotype 1b IRES RNA subdomain 2a assessed as conformational change by cyanine dye-based FRET assay. The arrangement: species or system Hepatitis C virus subtype 1b.
Experiment [3] relates to Internal ribosome entry site (IRES). Put plainly: Binding affinity to Hepatitis C virus IRES RNA subdomain 2a by mass spectrometry assay. The arrangement: species or system Hepacivirus hominis.
The test system is the same in experiment [4]. Put plainly: Inhibition of Hepatitis C virus IRES RNA-driven translation. The following applies: Hepacivirus hominis.
Experiment [5] concerns Hepatitis C virus. Briefly: Antiviral activity against Hepatitis C virus infected in Huh-7 cells assessed as inhibition of HCV replicon at 10 uM by replicon assay. The format is functional, Hepacivirus hominis.

Usually EC50 stands for the midpoint of the concentration-response curve. Regarding `CN(C)CC1COc2ccc3nc4n(c3c2C1)CC(CN(C)C)CN4` (stereo unspecified), the EC50 was 4 µM in the experiment on Hepatitis C virus [1] and 0.6 µM in experiment [2]. Usually Kd stands for the equilibrium constant for the complex coming apart. Regarding `CN(C)CCCn1c(N)nc2ccc3c(c21)CC(CN(C)C)CO3` (stereo unspecified), the EC50 in the experiment with Hepatitis C virus [1] was determined as 2.8 µM; in experiment [2], 3.4 µM. This molecule yielded a Kd in experiment [3] of 0.86 µM. A word on the IC50: it is the concentration that gives 50% inhibition. The low end stands for inhibition by little substance, the high end for a need for much substance. As to `Cc1cc(C)nc(/N=C(\N)NCCc2ccccc2)n1`, in experiment [4], the IC50 was found to be 9.6 µM. As to `Cc1cc2nc3ccc(N(C)C)cc3nc2cc1N`, 0.08 µM corresponded to half-maximal inhibition in experiment [4] (IC50). As to `CN(C)CCCn1c(N)nc2ccccc21`, the EC50 in experiment [2] amounted to 50 µM. Moreover, the Kd in experiment [3] came out at 100 µM. As usually defined, the inhibition is the percentage by which the read-out fell short of the control. Consider `CC(=O)c1ccc(C(=O)N[C@@H](CCCCN)C(=O)N2C[C@H](N)C[C@H](N)C2)cc1`, for which the inhibition at 10 µM with Hepatitis C virus [5] was 75%. The EC50 in experiment [2] is 6.3 µM.

(Values after ChEMBL document CHEMBL3124830, “Hepatitis C virus translation inhibitors targeting the internal ribosomal entry site” (J Med Chem, 2014).)
